From patent US20080171710A1, “The Redox/Fyn/c-Cbl Pathway” (priority 2007, published 2008)

Columns and labels:
[1] = test system: Fyn; type: cell-based, rat
[2] = test system: MDA-MB-231 cell; assay: MDA-MB-231 cell division by BrdU incorporation; type: cell-based; conditions: NAC 1 mM or PP1 200 nM with 20 μM tamoxifen, 48 hours
Description: It has been reported that c-Cbl induced down-regulation of EGFR is disabled in cancer cells (Hirsch DS, Shen. Y, Wu WJ, (2006) Cancer Res. Apr 1;66(7):3523-30). Thus, growth and motility inhibition of breast cancer cells by EGFR degradation is correlated with inaetivation of Cdc42. […] Cells were cultured in phenol red-free growth media and exposed to TMX (0, 1 μM, 10 μM, 20 μM and 50 μM) for 48 hours, with or without 1 mM NAC. In FIG. 22C. MDA-MB-231 cell division was analyzed by BrdU incorporation analysis. […] Percentage of Brdu+ cells from DAPI+ cells was determined in each sample.

[3] = test system: PDGFRα; assay: PDGFR ubiquitylation (immunoprecipitation assay); type: cell-based, rat; conditions: MeHg exposure
Description: For the co-immunoprecipitation assay, anti-c-Cbl monoclonal antibody (BD PharMingen) or anti-PDGFRα polyclonal antibody (Santa Cruz Biotechnology) was added to the pre-cleared cell lysates (250 μg of total protein), and the mixtures were gently rocked for 2 h at 4° C. A total of 30 μl of protein A/G agarose was then added to the mixture followed by rotating at 4° C. overnight. The protein A/G agarose was then spun down and washed thoroughly three times. The precipitates were resolved on an 8% SDS-PAGE gel and then were subjected to Western blot analysis using an anti-p-Tyr (for c-Cbl phosphorylation assay) or ubiquitin (for PDGFR ubiquitylation assay) antibody (Santa Cruz Biotechnology).

[4] = test system: O-2A/OPCs; assay: Cell death of O-2A/OPCs on exposure; type: cell-based, rat
Description: To generate sufficient numbers of cells for biochemical analysis, cells, were expanded through one to two passages in PDGF+FGF-2 before replating in the presence of PDGF alone. When cells achieved approximately 50% confluence, MeHg, Pb, or paraquat was added to their medium at concentrations indicated. Doses for the toxicants were chosen on the basis of dose-response curves to identify sub-lethal exposure levels, as a reflection of blood and brain toxicant levels of these compounds and, where applicable, on the basis of previous reports. All toxicant concentrations examined were confirmed to cause death of less than 5% of cells over the time course of the experiment.

[5] = test system: PDGFRα mRNA; assay: PDGFRα mRNA, real-time RT-PCR; type: cell-based, rat; conditions: MeHg exposure
Description: Total RNA was isolated using TRIZOL reagent (Inviirogen, Carlsbad, Calif., United States) according to the manufacturer's protocol. A total of 1 μg of RNA was subjected to reverse transcription using Superscript II (In vitrogen). The reactions were incubated at 42° C. for 50 min. The FAM-iabeled probe mixes for rat PDGFRα and Fyn, and the VIC-labeled GAPDH probe mix were purchased from Applied Biosystems (Foster City Calif., United States). For multiplex real-time PCR, reactions each containing 5 μl of 10-fold diluted reverse transcription product, 1 μl of interest gene probe mix. 1 μl of GAPDH probe mix, and 10 μl of TaqMan Universal PCR Master Mix were performed on an iCycler iQ multicolor real-time PCR system (Bio-Rad, Hercules, Calif., United States) and cycling condition was 50° C. for 2 min and 95° C. for 10 min, followed by 40 cycles of 95° C. for 15 sec and 60° C. for 1 min. Each sample was run in triplicate. Data were analyzed, by iCycler iQ software (Bio-Rad).

[6] = test system: O-2A/OPCs; assay: In vivo BrdU incorporation assay with Olig2 co-labeling, corpus callosum; parameters: species or system mice; conditions: low-level MeHg in maternal drinking water, P14
Description: To analyze DNA synthesis in vivo, mice were injected with a single dose of 5-BrdU (50 mg/kg body weight), dissolved in 0.9% NaCl, filtered (0.2 μm), and applied intraperitoneally 2 h prior to perfusion. After removal and sectioning of brains, 40-μm free-floating sections were incubated for 2 h in 50% forraamide/2×SSC (0.3 M NaCl and 0.03 M sodium citrate) at 65° C., rinsed twice for 5 min each in 2×SSC, incubated for 30 min in 2N HCl at 37° C., and rinsed for 10 min in 0.1 M boric acid (pH 8.5) at room temperature. Several rinses in TBS were followed by incubation in TBS/0.1% Triton X-100/3% donkey serum (TBS-plus) for 30 min. Sections were then incubated with monoclonal rat anti-BrdU antibody (1:2,500; Harlan Sera-Lab, Loughborough, United Kingdom) and polyclonal rabbit anti-Olig2 in TBS-plus for 48 h at 4° C. […]
Quantification of BrdU+ cells was accomplished with unbiased counting methods by confocal microscopy. BrdU immunoreaetive nuclei were counted in one focal plane to avoid over-sampling. In corpus callosum, BrdU+ cells were counted in every sixth section (40 μm) from a coronal, series between interaural AP+5.2 mm and AP+3.0 mm in the entire extension of the rostral and medial part of the corpus callosum. Quantitative data are presented as mean percentage normalized to control animals. […]

| Compound | effect on EtOH-induced Fyn phosphorylation ([1]; co-exposure to NAC) | effect on Aβ-induced increase in phosphorylated Fyn ([1]; co-exposure with Aβ) | rescue from tamoxifen effect on cell division [2] | ubiquitylation of PDGFRα [3] | cell death at the concentrations used ([4]; MeHg at lower concentrations (not above 50 nM), 1 μM Pb, 5 μM paraquat) | exposure level associated with significant lethality ([4]; O-2A/OPCs) | levels of PDGFRα mRNA [5] | reduction in the number of total BrdU+ cells [6] |
| --- | --- | --- | --- | --- | --- | --- | --- | --- |
| CC(=O)N[C@@H](CS)C(=O)O [NAC, N-acetyl-L-cysteine] | blocked | reversed | did not result in any rescue effect | – | – | – | – | – |
| [CH3][Hg][Cl] [MeHg, methylmercury] | – | – | – | enhanced ubiquitylation | little or no cell death | above 50 nM | did not have any significant effects | 20% |
